Experimental data as given in patent US6911468B2, “Tyrosine phosphatase inhibitors” (Takeda Chemical Industries, Ltd., priority 2000, dated 2005).

These molecules were tested against T1, PTP1B (Homo sapiens, UniProt P18031) (assay: Measurement of PTP1B Inhibitory Activity (dephosphorylation of p-nitrophenylphosphate, absorbance at 405 nm)). Conditions: PTP1B enzyme active domain (1-321 amino acid, 6 histidine residues at C-terminal), pNPP substrate, pH 6.5, 37° C. for 1 hour.
T1 construct: in order to express 1-321 amino acid region encoding enzyme active domain of PTP1B; made in house; host or cells: E. coli BL21 DE3 pLysS
T1 sequence (P18031 1-321): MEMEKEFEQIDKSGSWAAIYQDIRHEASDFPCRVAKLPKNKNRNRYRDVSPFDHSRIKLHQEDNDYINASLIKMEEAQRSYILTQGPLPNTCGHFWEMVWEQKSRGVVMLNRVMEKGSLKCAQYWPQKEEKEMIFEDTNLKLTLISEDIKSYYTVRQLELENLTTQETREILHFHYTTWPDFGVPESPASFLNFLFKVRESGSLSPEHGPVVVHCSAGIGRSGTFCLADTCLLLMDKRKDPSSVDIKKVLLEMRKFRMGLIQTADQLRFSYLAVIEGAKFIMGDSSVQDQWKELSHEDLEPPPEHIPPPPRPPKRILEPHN
Type: biochemical
Description: Based on the sequence of human PTP-1B registered in Genbank (M31724) database, primer 1 and primer 2 were synthesized, and PTP1B cDNA was amplified from human skeletal muscle cDNA library (Clonetech, Inc. HL5002a) according to PCR method using these primers. The cycle of reactions at 98° C. for 10 seconds, at 58° C. for 30 seconds and at 72° C. for 90 seconds was repeated 35 cycles. The PCR reaction product (1322 bp) was cloned to pT7 Blue-T vector (Novagen, Inc.) to identify the base sequence.
Human PTP 1B cDNA (1322 bp) (100 ng) was amplified with primer 3 and primer 4 in order to express 1-321 amino acid region encoding enzyme active domain of PTP1B. The PCR reaction product (976 bp) was cloned to pT7 Blue-T vector (Novagen, Inc.) to identify the base sequence.
The pT7 Blue-T vector-human PTP1B cDNA (976 bp) was cleaved with restriction enzymes NdeI and SalI (Takara Shuzo Co., Ltd.) and subjected to electrophoresis using 0.7% agarose gel, and a 969 bp fragment was excised and purified. The fragment was introduced into pET32a (+) vector (Novagen, Inc.) cleaved with restriction enzymes NdeI and XhoI (Takara Shuzo Co., Ltd.), to constitute a vector pET32a (+)-human PTP1B cDNA (969 bp), which expresses PTP1B (321 amino acid) with 6 histidine residues binded to a C-terminal thereof under a control of T7 lac promotor.
E.coli BL21 DE3 pLysS (Novagen, Inc.) was transformed with the pET32a (+)-human PTP 1B cDNA (969 bp) to give an ampicillin (50 μg/ml) resistant bacterium. This was shake cultured at 37° C. using 5L of 2xYT medium (ampicillin (50 μg/ml)). When OD600nm reached to 0.5, IPTG (Isopropyl b-D-Thiogalactoside) was added to the culture medium so as to be 1 mM in order to induce the expression of protein, and this medium was further cultured at 37° C. overnight. The bacterium was collected by centrifugation (8000 rpm, 10 minutes, 4° C.).
The bacterium was suspended in lysis buffer (50 ml) (20 mM Tris HCl (pH 8.0), 0.5 M NaCl, 1 mM PMSF, 5 mM benzamidine, Lysozyme 5 mg) and crushed by sonication. To the supernatant after centrifuging (12000 rpm, 10 minutes, 4° C.) was added imidazole so as to be 50 mM and the mixture was mixed with His Bind resin (Novagen, Inc.) binded with Ni ion (4° C., overnight). The mixture was washed with 200 ml of (20 mM Tris HCl (pH 8.0), 0.5 M NaCl, 1 mM PMSF, 5 mM benzamidine, 50 mM imidazole), eluted with (20 mM Tris HCl (pH 8.0), 0.5 M NaCl, 1 mM PMSF, 5 mM benzamidine, 400 mM imidazole) and concentrated by centrifugation using Ultrafree-15 Biomax-50 (MILLIPORE Corp.) (11 mg/ml, 4ml). The purified protein (PTP1B) was identified by Western blotting method using SDS-PAGE, coomassie Blue stain and anti-PTP1B antibody (UBI Inc.).
The PTP1B inhibitory activity of the test compound was evaluated by measuring the ability of the test compound to dephosphorylate p-nitrophenylphosphate (pNPP) (a change of the absorbance at 405 nm).
To a buffer for measurement of the activity (0.1 M sodium acetate (pH 6.5), 1 mM EDTA, 10 mM DTT) (10 ml) was added PTP1B enzyme solution (2 μl) and the mixture was added to each well of a 96-well microtiter plate (100 μl each). A solution of the test compound in DMSO (10 μl) and 2 mM pNPP/the buffer for measurement of the activity (90 μl) were then added to each well, and the absorbance at 405 nm was measured. After keeping at 37° C. for 1 hour, the absorbance was measured again to evaluate a change of the absorbance. Regarding the change of the absorbance in the absence of the test compound as 100%, the concentration of the compound necessary for 50% inhibition (IC50 value) was calculated.

Q: With `O=C(O)[C@@H](Cc1ccccc1)Oc1ccc(-c2cccn2-c2ccc(Br)cc2)cc1` [Example 2, (2R)-2-{4-[1-(4-Bromophenyl)-1H-pyrrol-2-yl]phenoxy}-3-phenylpropanoic acid] as the molecule, how does the IC50 read?
A: 890 nM

Q: How did the IC50 turn out when `Cc1ccc(-c2ccc(/C=C/C(=O)O)cc2)n1-c1ccc(/C=C/C(=O)O)cc1` [Example 4, (2E)-3-[4-(1-{4-[(1E)-2-Carboxyethenyl]phenyl}-5-methyl-1H-pyrrol-2-yl)phenyl]-2-propenoic acid] was run?
A: 6480 nM

Q: How did the IC50 turn out when `Cc1ccc(-c2ccc(O[C@H](Cc3ccccc3)C(=O)O)cc2)n1-c1ccc(Br)cc1` [Example 6, (2R)-2-{4-[1-(4-Bromophenyl)-5-methyl-1H-pyrrol-2-yl]phenoxy}-3-phenylpropanoic acid] was run?
A: 500 nM

Q: Which IC50 does the source give for `Cc1ccc(-c2cc(Br)c(O[C@H](Cc3ccccc3)C(=O)O)c(Br)c2)n1-c1ccc(Br)cc1` [Example 8, (2R)-2-{2,6-Dibromo-4-[1-(4-bromophenyl)-5-methyl-1H-pyrrol-2-yl]phenoxy}-3-phenylpropanoic acid] here?
A: 380 nM

Q: `Cc1ccc(-c2ccc(-c3ccc(O[C@H](Cc4ccccc4)C(=O)O)cc3)cc2)n1-c1ccc(Br)cc1` [Example 10, (2R)-2-({4′-[1-(4-Bromophenyl)-5-methyl-1H-pyrrol-2-yl][1,1′-biphenyl]-4-yl}oxy)-3-phenylpropanoic acid] was tested. Which IC50 did it give?
A: 340 nM

Q: For `O=C(O)CCc1ccc(-c2cccn2-c2ccc(CCC(=O)O)cc2)cc1` [Example 14, 3-(4-{1-[4-(2-Carboxyethyl)phenyl]-1H-pyrrol-2-yl}phenyl)propanoic acid], which IC50 is on record?
A: 5870 nM

Q: How did the IC50 turn out when `O=C(O)[C@@H](Cc1ccccc1)Oc1ccc(-c2cccn2-c2ccc(O[C@H](Cc3ccccc3)C(=O)O)cc2)cc1` [Example 16, (2R)-2-{4-[1-(4-{[(1R)-1-Carboxy-2-phenylethyl]oxy}phenyl)-1H-pyrrol-2-yl]phenoxy}-3-phenylpropanoic acid] was run?
A: 410 nM

Q: `O=C(O)[C@@H](Cc1ccccc1)Oc1ccc(-n2cccc2-c2ccc(Br)cc2)cc1` [Example 18, (2R)-2-{4-[2-(4-bromophenyl)-1H-pyrrol-1-yl]phenoxy}-3-phenylpropanoic acid] was tested. Which IC50 did it give?
A: 1010 nM

Q: How did the IC50 turn out when `CCc1ccc(-c2ccc(O[C@H](Cc3ccccc3)C(=O)O)cc2)n1-c1ccc(Br)cc1` [Example 20, (2R)-2-{4-[1-(4-bromophenyl)-5-ethyl-1H-pyrrol-2-yl]phenoxy}-3-phenylpropanoic acid] was run?
A: 530 nM

Q: `O=C(O)[C@@H](Cc1ccccc1)Oc1ccc(-c2ccc(-c3ccccc3)n2-c2ccc(Br)cc2)cc1` [Example 22, (2R)-2-{4-[1-(4-Bromophenyl)-5-phenyl-1H-pyrrol-2-yl]phenoxy}-3-phenylpropanoic acid] was tested. Which IC50 did it give?
A: 710 nM

Q: `Cc1cc(-c2ccc(O[C@H](Cc3ccccc3)C(=O)O)cc2)n(-c2ccc(Br)cc2)c1C` [Example 24, (2R)-2-{4-[1-(4-Bromophenyl)-4,5-dimethyl-1H-pyrrol-2-yl]phenoxy}-3-phenylpropanoic acid] was tested. Which IC50 did it give?
A: 320 nM

Q: `Cc1cc(C)n(-c2ccc(Br)cc2)c1-c1ccc(O[C@H](Cc2ccccc2)C(=O)O)cc1` [Example 26, (2R)-2-{4-[1-(4-Bromophenyl)-3,5-dimethyl-1H-pyrrol-2-yl]phenoxy}-3-phenylpropanoic acid] was tested. Which IC50 did it give?
A: 420 nM

Q: With `CCCc1cc(C)n(-c2ccc(Br)cc2)c1-c1ccc(O[C@H](Cc2ccccc2)C(=O)O)cc1` [Example 28, (2R)-2-{4-[1-(4-Bromophenyl)-5-methyl-3-propyl-1H-pyrrol-2-yl]phenoxy}-3-phenylpropanoic acid] as the molecule, how does the IC50 read?
A: 480 nM

Q: With `Cc1cc(-c2ccccc2)c(-c2ccc(O[C@H](Cc3ccccc3)C(=O)O)cc2)n1-c1ccc(Br)cc1` [Example 30, (2R)-2-{4-[1-(4-Bromophenyl)-5-methyl-3-phenyl-1H-pyrrol-2-yl]phenoxy}-3-phenylpropanoic acid] as the molecule, how does the IC50 read?
A: 720 nM

Q: `Cc1ccc(-c2ccc(O[C@H](Cc3c[nH]c4ccccc34)C(=O)O)cc2)n1-c1ccc(Br)cc1` [Example 32, (2R)-2-{4-[1-(4-Bromophenyl)-5-methyl-1H-pyrrol-2-yl]phenoxy}-3-(1H-indol-3-yl)propanoic acid] was tested. Which IC50 did it give?
A: 2100 nM

Q: With `CCCc1ccc(-c2ccc(O[C@H](Cc3ccccc3)C(=O)O)cc2)n1-c1ccc(Br)cc1` [Example 34, (2R)-2-{4-[1-(4-Bromophenyl)-5-propyl-1H-pyrrol-2-yl]phenoxy}-3-phenylpropanoic acid] as the molecule, how does the IC50 read?
A: 1100 nM

Q: `O=C(O)[C@@H](Cc1ccccc1)Oc1ccc(-c2cccn2-c2ccccc2)cc1` [Example 36, (2R)-2-[4-(1-Phenyl-1H-pyrrol-2-yl)phenoxy]-3-phenylpropanoic acid] was tested. Which IC50 did it give?
A: 1430 nM

Q: Which IC50 does the source give for `Cc1ccc(-n2cccc2-c2ccc(O[C@H](Cc3ccccc3)C(=O)O)cc2)cc1` [Example 38, (2R)-2-{4-[1-(4-Methylphenyl)-1H-pyrrol-2-yl]phenoxy}-3-phenylpropanoic acid] here?
A: 1600 nM

Q: Which IC50 does the source give for `O=C(O)[C@@H](Cc1ccccc1)Oc1ccc(-c2cccn2-c2ccc(Cl)cc2)cc1` [Example 40, (2R)-2-{4-[1-(4-Chlorophenyl)-1H-pyrrol-2-yl]phenoxy}-3-phenylpropanoic acid] here?
A: 1200 nM

Q: With `O=C(O)[C@@H](Cc1ccccc1)Oc1ccc(-c2cccn2-c2ccc(C(F)(F)F)cc2)cc1` [Example 42, (2R)-2-{4-[1-(4-Trifluoromethylphenyl)-1H-pyrrol-2-yl]phenoxy}-3-phenylpropanoic acid] as the molecule, how does the IC50 read?
A: 4900 nM

Q: For `Cc1ccc(-c2ccc(O[C@H](Cc3ccccc3)C(=O)O)cc2)n1-c1ccc(Cl)cc1` [Example 44, (2R)-2-{4-[1-(4-chlorophenyl)-5-methyl-1H-pyrrol-2-yl]phenoxy}-3-phenylpropanoic acid], which IC50 is on record?
A: 330 nM

Q: For `Cc1ccc(-c2ccc(O[C@H](Cc3ccccc3)C(=O)O)cc2)n1-c1ccc(C(F)(F)F)cc1` [Example 46, (2R)-2-{4-[5-Methyl-1-(4-trifluoromethylphenyl)-1H-pyrrol-2-yl]phenoxy}-3-phenylpropanoic acid], which IC50 is on record?
A: 400 nM

Q: For `Cc1ccc(-c2ccc(O[C@H](Cc3ccccc3)C(=O)O)cc2)n1Cc1ccccc1` [Example 48, (2R)-2-[4-(1-Benzyl-5-methyl-1H-pyrrol-2-yl)phenoxy]-3-phenylpropanoic acid], which IC50 is on record?
A: 360 nM

Q: Which IC50 does the source give for `Cc1ccc(-c2ccc(O[C@@H](Cc3ccccc3)C(=O)O)cc2)n1-c1ccc(Br)cc1` [Example 50, (2S)-2-{4-[1-(4-Bromophenyl)-5-methyl-1H-pyrrol-2-yl]phenoxy}-3-phenylpropanoic acid] here?
A: 940 nM

Q: How did the IC50 turn out when `Cc1ccc(-c2ccc(O[C@H](Cc3ccccc3)C(=O)O)cc2)n1CCc1ccc(Br)cc1` [Example 52, (2R)-2-(4-{1-[2-(4-bromophenyl)ethan-1-yl]-5-methyl-1H-pyrrol-2-yl}phenoxy)-3-phenylpropanoic acid] was run?
A: 310 nM
